Reference: patent US11236102B2, “Oxabicycloheptane prodrugs” (Lixte Biotechnology, Inc., priority 2015, dated 2022)
Entries after “also recorded” stand apart in the source; their conditions may differ.

Key:
[1] = Oral absorption / oral bioavailability of 151 and 100; conditions: rat, in vivo
in vivo = assay: in vivo; design: species or system SD rats; conditions: rat, in vivo, iv, 1 mg/kg
Procedure: 105 was dissolved in 4% NaHCO3 in saline for IV administration. The detailed procedure of dosing solution preparation was presented in Appendix I.
Thirteen (13) animals were placed on the study. The animals in IV arm were free access to food and water. One extra animal was used for blank liver and plasma generation (5 mL per animal). The resulting blank liver and plasma was then applied to the development of bioanalytical method and sample bioanalysis for the entire study.
The IV injection was conducted via foot dorsal vein. Animals were free access to food and water before dose.
The animal is restrained manually. Approximately 150 μL of blood/time point is collected into sodium heparin tube via cardiac puncture for terminal bleeding (anesthetized under carbon dioxide). Blood sample will be put on ice and centrifuged to obtain plasma sample (2000 g, 5 min under 4° C.) within 10 minutes.
The animal will be euthanized with carbon dioxide inhalation. Open abdominal cavity with scissor to expose internal organs. Hold the carcass in an upright position and allow the organs to fall forward. Cut the connective tissues and remove the organs. Then the organs are rinsed with cold saline, dried on filtrate paper, placed into a screw-top tube and weighed, snap frozen by placing into dry-ice immediately.
Plasma and liver samples were stored at approximately −80° C. until analysis. The backup samples will be discarded after three weeks after in-life completion unless requested. The unused dosing solutions will be discarded within three weeks after completion of the study
Software: The PK parameters were determined by non-compartmental model of non-compartmental analysis tool, Pharsight Phoenix WinNonlin® 6.2 software.
Concentration data within 80%-120% of LLOQ was considered within normal instrumental variation and presented in the results. Terminal t1/2 calculation: Time points were automatic selected by “best fit” model for terminal half life estimation as the first option. Manual selection was applied when “best fit” could not well define the terminal phase.

[2] = Pharmacokinetic study of 157 (iv, po) in SD rats: 157 and endothal in plasma, liver, brain; assay type: in vivo; design: Tmax: dose or concentration left out as unconfirmed; conditions: for Endothal plasma concentration: individual rats
Procedure: The blood, liver and brain tissue samples were collected at predetermined times from rats. […] Compound were diluted shortly before use in 4% sodium bicarbonate for sterile injection (this is the standard pediatric solution of NaHCO3 with a pH of about 8.5).
Compound 153 was freshly prepared by diluting the drugs shortly before use in 4% sodium bicarbonate for sterile injection (this is the standard pediatric solution of NaHCO3 with a pH of about 8.5). The final concentrations of 153 solutions were 0.25 mg/mL. The 153 solutions were administered via iv or po route at dose volume of 5 ml/kg according to the latest body weight. Compound 157 was freshly prepared by diluting the drugs shortly before use in 4% sodium bicarbonate for sterile injection (this is the standard pediatric solution of NaHCO3 with a pH of about 8.5). […] The 157 solutions were administered via iv or po route at dose volume of 5 ml/kg according to the latest body weight.
Twelve (12) female SD rats per group were dosed by iv with 153 or 157. The rats were fasted overnight prior to dosing, with free access to water. Foods were withheld for 2 hours post-dose. Blood, liver and brain tissue samples in two animals each group were collected at each time point, within 10% of the scheduled time for each time point. Two extra animals were used for analytic method development.
Blood (>0.3 mL) were collected via aorta abdominalis in anaesthetic animals into tubes containing heparin at 15 min, 1, 2, 6, 10 and 24 hours after iv administration. Liver and brain tissues were collected immediately after animal death. The liver and brain tissues were excised and rinsed with cold saline to avoid blood residual. Upon collection, each sample was placed on ice and the blood samples were subsequently centrifuged (4° C., 11000 rpm, 5 min) to separate plasma.
The obtained plasma, liver and brain tissue samples were stored at −70° C. until LC-MS/MS analysis.
Two (2) female SD rats per group were dosed by po with 153 or 157. The rats were fasted overnight prior to dosing, with free access to water. Foods were withheld for 2 hours post-dose. Blood samples (>0.3 mL) were collected via aorta abdominalis in anaesthetic animals into tubes containing heparin at 30 min, 1, 2, 6, 10 and 24 hours after po administration.
To each sample, 30 μL IS-D (for blank samples, 20 μL acetonitrile:water (1:1) was added) and 300 ul acetonitrile was added. The sample mixture was vortexed for approximately 3 min. After centrifugation at 10000 rpm for 5 min at 4° C., 100 μL of the upper layer was transferred to a new tube and added 200 μL 0.4% formic acid in water (pH6.0). The mixture was vortexed for approximately 3 min before injected onto the LC/MS/MS system for analysis.
On the day of the assay, the frozen liver and brain samples were thawed unassisted at room temperature. An about 200 mg weighed sample of each thawed tissue was placed into a plastic tube with water (0.6 mL) to facilitate homogenization. Tissue processing was conducted using a homogenizer for approximately 1 min, […] homogenate was transferred into a fresh Eppendorf tube. To each tube, 50 μL IS-D was added and mixed. Then 500 ul acetonitrile was added and the sample mixture was vortexed for approximately 3 min. After centrifugation at 10000 rpm for 5 min at 4° C., 100 μL of the upper layer was transferred to a new tube and evaporate the supernatant to dryness at 35° C. Reconstitute the residue with 200 μL of 0.4% formic acid in water (pH 6.0), and vortex for 3 min, submit for LC-MS/MS analysis.
Frozen unknown plasma samples were completely thawed at room temperature and vortexed thoroughly. With a pipette, 50 μL of plasma was transferred into a 2.0 mL Eppendorf tube. 50 μL of 0.1N HCl and 800 μL ethyl acetate were added into each sample. The sample mixture was vortexed for approximately 3 min.

[3] = female, Sprague-Dawley, rat, in vivo, iv, 1.5 mg/kg

| Structure (SMILES) | bioavailability [1] | AUC(0-last) in liver (in vivo) | AUC(0-∞) in liver (in vivo) | detectability in brain samples ([2]; endothal after single iv 157 at 1.5 mg/kg, 1.5 mg/kg) | Tmax ([2]; female, SD, rat, in vivo, po) | AUC [2, 3] | Cmax [2, 3] | Endothal plasma concentration ([2]; iv administration of 157, 10 hr) | Endothal plasma concentration ([2]; iv administration of 157, 24 hr) | Endothal plasma concentration ([2]; po administration of 157, 10 hr) | AUClast in liver ([2]; rat, in vivo, iv, 1.5 mg/kg) |
| --- | --- | --- | --- | --- | --- | --- | --- | --- | --- | --- | --- |
| COC(=O)C1C2CCC(O2)C1C(=O)N1CCN(C)CC1 (centres unmarked) [Compound 151] | ~60% |  |  |  |  |  |  |  |  |  |  |
| O=C(O)C1C2CCC(O2)C1C(=O)O (centres unmarked) [Endothal, 7-oxabicyclo[2.2.1]heptane-2,3-dicarboxylic acid] |  | 3152 ng·h/g | 4896 ng·h/g | not detectable; also recorded: undetectable | 2 h | 374 ng·h/mL | 3720 ng/mL | BLQ | BLQ | BLQ | 15025 ng·h/g |
